Data on 3 compounds can be found in patent US6979666B2, “Dithianon-based fungicidal mixtures” (BASF Aktiengesellschaft, priority 2002, dated 2005).

This experiment has as its system Alternaria solani. Kind of experiment: Activity against early blight of tomato caused by Alternaria solani (protective spray on potted tomato plants). The note with it: tomato leaves, rated after 5 days, untreated control 72% infection. It is filed as in vivo. The procedure:
The active compounds, separately or together, were prepared as a stock solution with 0.25% by weight of active compound in acetone or DMSO. 1% by weight of the emulsifier Uniperol® EL (wetting agent having emulsifying and dispersing action based on ethoxylated alkylphenols) was added to this solution, and the solution was diluted with water to the desired concentration.
Use example: Activity against early blight of tomato caused by Alternaria solani
Leaves of potted plants of the cultivar “Groβe Fleischtomate St. Pierre” were sprayed to runoff point with an aqueous suspension having the concentration of active compound stated below. The next day, the leaves were infected with an aqueous spore suspension of Alternaria solani in a 2% strength biomalt solution having a density of 0.17×10^6 spores/ml. The plants were then placed in a water-vapor-saturated chamber at 20–22° C. After 5 days, the early blight on the untreated, but infected control plants had developed to such an extent that the infection could be determined visually in %.
Evaluation is carried out by determining the infected leaf areas in percent. These percentages are converted into efficacies.
The efficacy (E) is calculated as follows using Abbot's formula: E=(1−α/β)·100 • α corresponds to the fungal infection of the treated plants in % and • β corresponds to the fungal infection of the untreated (control) plants in %
An efficacy of 0 means that the infection level of the treated plants corresponds to that of the untreated control plants; an efficacy of 100 means that the treated plants were not infected.
The expected efficacies of the active compound mixtures are determined using Colby's formula [S.R. Colby, Weeds 15, 20–22 (1967)] and compared with the observed efficacies.
Colby's Formula: E=x+y−x·y/100 • E expected efficacy, expressed in percent of the untreated control, when using the mixture of the active compounds A and B at the concentrations a and b • x efficacy, expressed in % of the untreated control, when using active compound A at a concentration of a • y efficacy, expressed in % of the untreated control, when using active compound B at a concentration of b

Setting [1] is: 8 ppm active compound in the spray liquid.
Setting [2] is: 16 ppm active compound in the spray liquid.
[3] abbreviates: 31 ppm active compound in the spray liquid.
[4] abbreviates: 63 ppm active compound in the spray liquid.

Molecules are shown by their SMILES.

Consider `N#Cc1sc2c(=O)c3ccccc3c(=O)c=2sc1C#N` [I, dithianon], for which the “Efficacy in % of the untreated control” value by setting is: under setting [1], 44%; under setting [2], 65%; under setting [3], 79%; under setting [4], 86%.
Turning to `Cc1cc(C)nc(Nc2ccccc2)n1` [II-1, pyrimethanil], the “Efficacy in % of the untreated control” value runs as follows: under setting [1], 0%; under setting [2], 0%; under setting [3], 0%; under setting [4], 0%.
On to `Cc1cc(C2CC2)nc(Nc2ccccc2)n1` [II-2, cyprodinil], for which the “Efficacy in % of the untreated control” value under setting [1] was 44%, the “Efficacy in % of the untreated control” value under setting [2] came out at 72% and the “Efficacy in % of the untreated control” value under setting [4] was 86%.
